Test [1] can be described thus: Compound was tested for inhibitory activity against alpha-Fucosidase obtained from Bovine epididymis.
A short description of test [2]: Compound was tested for inhibitory activity against alpha-Fucosidase obtained from Bovine kidney.
A short description of test [3]: Compound was tested for inhibitory activity against alpha-1,2-Fucosidase obtained from Arthrobacter oxidans F1.

By IC50 is commonly meant the concentration at which inhibition is half-maximal. The low end stands for greater potency in that assay, the high end for weaker potency in that assay. As to `CC1NC(CO)(CNC(=O)CN)C(O)C(O)C1O` (centres undefined) [2-Amino-N-(3,4,5-trihydroxy-2-hydroxymethyl-6-methyl-piperidin-2-ylmethyl)-acetamide], the IC50 in test [1] was 170 nM; in test [2], 50 nM; in test [3] it was 116 nM.

`CC1NC(C#N)(CO)C(O)C(O)C1O` (centres undefined) [3,4,5-Trihydroxy-2-hydroxymethyl-6-methyl-piperidine-2-carbonitrile]: the IC50 amounted to 110 nM in test [1], 75 nM in test [2] and 122 nM in test [3].

`CC1NC(CN)(CO)C(O)C(O)C1O` (centres undefined) [2-Aminomethyl-2-hydroxymethyl-6-methyl-piperidine-3,4,5-triol]: the 50% inhibitory concentration (IC50) came to 160 nM in test [1], 206 nM in test [2] and 80 nM in test [3].
